The NIST ThermoML archive (doi:10.1016/j.jct.2013.10.031)

Assay: wn = mass fraction of the nth substance listed
Settings: Gas, Burnett expansion method

FCC(F)(F)F [1,1,1,2-tetrafluoroethane] + CCC
Settings | mass density [kg/m3]
251.84 K, 167.7 kPa, w2 = 0.4 | 9.96073
251.85 K, 201.9 kPa, w2 = 0.4 | 13.2676
251.86 K, 140.8 kPa, w2 = 0.4 | 7.47724
251.88 K, 122.9 kPa, w2 = 0.4 | 5.6131
251.89 K, 177.7 kPa, w2 = 0.45 | 5.82156
251.9 K, 103.2 kPa, w2 = 0.45 | 3.28086
251.9 K, 135.5 kPa, w2 = 0.45 | 4.37034
251.9 K, 231.8 kPa, w2 = 0.45 | 7.75442
252.28 K, 125.8 kPa, w2 = 0.5 | 3.8957
252.28 K, 164.9 kPa, w2 = 0.5 | 5.1893
252.29 K, 95.7 kPa, w2 = 0.5 | 2.9246
252.29 K, 215.3 kPa, w2 = 0.5 | 6.9121
252.3 K, 277.7 kPa, w2 = 0.5 | 9.2069
254.94 K, 147.3 kPa, w2 = 0.65 | 4.0008
254.94 K, 193.1 kPa, w2 = 0.65 | 5.32
254.94 K, 251.7 kPa, w2 = 0.65 | 7.0741
254.95 K, 111.9 kPa, w2 = 0.65 | 3.0009
255.01 K, 161.7 kPa, w2 = 0.55 | 4.7449
255.01 K, 211.6 kPa, w2 = 0.55 | 6.3095
255.01 K, 275.1 kPa, w2 = 0.55 | 8.3897
255.02 K, 122.9 kPa, w2 = 0.55 | 3.5683
255.02 K, 242.1 kPa, w2 = 0.6 | 7.0088
255.03 K, 107.3 kPa, w2 = 0.6 | 2.9809
255.03 K, 141.3 kPa, w2 = 0.6 | 3.9638
255.03 K, 185.5 kPa, w2 = 0.6 | 5.2708
255.79 K, 278.4 kPa, w2 = 0.45 | 9.23624
255.8 K, 213.6 kPa, w2 = 0.45 | 6.93377
255.81 K, 124.4 kPa, w2 = 0.45 | 3.90764
255.81 K, 163.3 kPa, w2 = 0.45 | 5.20515
255.82 K, 214.2 kPa, w2 = 0.4 | 7.34761
255.82 K, 276.5 kPa, w2 = 0.4 | 9.7875
255.83 K, 125 kPa, w2 = 0.4 | 4.14099
255.83 K, 163.9 kPa, w2 = 0.4 | 5.51597
256.28 K, 141.3 kPa, w2 = 0.5 | 4.27286
256.28 K, 185.6 kPa, w2 = 0.5 | 5.69162
256.28 K, 242.9 kPa, w2 = 0.5 | 7.58146
256.28 K, 314.6 kPa, w2 = 0.5 | 10.099
256.29 K, 107.2 kPa, w2 = 0.5 | 3.20772
258.98 K, 181.5 kPa, w2 = 0.65 | 4.8943
258.99 K, 138.2 kPa, w2 = 0.65 | 3.6806
258.99 K, 237.5 kPa, w2 = 0.65 | 6.508
259 K, 308.1 kPa, w2 = 0.65 | 8.6533
259.04 K, 159.4 kPa, w2 = 0.6 | 4.3995
259.04 K, 209.2 kPa, w2 = 0.6 | 5.8501
259.04 K, 273.1 kPa, w2 = 0.6 | 7.7791
259.05 K, 121 kPa, w2 = 0.6 | 3.3086
259.15 K, 246.1 kPa, w2 = 0.55 | 7.2337
259.15 K, 319.6 kPa, w2 = 0.55 | 9.6189
259.16 K, 143 kPa, w2 = 0.55 | 4.0909
259.16 K, 188 kPa, w2 = 0.55 | 5.4398
260.14 K, 233.5 kPa, w2 = 0.45 | 7.48249
260.15 K, 178.4 kPa, w2 = 0.45 | 5.61717
260.16 K, 136 kPa, w2 = 0.45 | 4.21669
260.16 K, 216.7 kPa, w2 = 0.5 | 6.56707
260.16 K, 304 kPa, w2 = 0.45 | 9.96648
260.17 K, 104.4 kPa, w2 = 0.45 | 3.16556
260.18 K, 117.7 kPa, w2 = 0.4 | 3.78056
260.19 K, 155.8 kPa, w2 = 0.4 | 5.03578
260.19 K, 265.9 kPa, w2 = 0.4 | 8.93493
260.2 K, 125.4 kPa, w2 = 0.5 | 3.70054
260.2 K, 165.1 kPa, w2 = 0.5 | 4.92963
260.21 K, 95 kPa, w2 = 0.5 | 2.77802
260.25 K, 204 kPa, w2 = 0.4 | 6.70606
260.39 K, 282.8 kPa, w2 = 0.5 | 8.73987
263.01 K, 137.7 kPa, w2 = 0.65 | 3.5955
263.01 K, 237 kPa, w2 = 0.65 | 6.3575
263.01 K, 308.7 kPa, w2 = 0.65 | 8.4537
263.02 K, 181 kPa, w2 = 0.65 | 4.781
263.04 K, 222.9 kPa, w2 = 0.55 | 6.3877
263.05 K, 128.9 kPa, w2 = 0.55 | 3.6124
263.05 K, 219.6 kPa, w2 = 0.6 | 6.0704
263.05 K, 286.9 kPa, w2 = 0.6 | 8.072
263.05 K, 291.1 kPa, w2 = 0.55 | 8.4935
263.06 K, 167.2 kPa, w2 = 0.6 | 4.5651
263.06 K, 169.8 kPa, w2 = 0.55 | 4.8035
263.06 K, 376.6 kPa, w2 = 0.55 | 11.2936
263.07 K, 371.3 kPa, w2 = 0.6 | 10.733
264.02 K, 234.6 kPa, w2 = 0.45 | 7.35423
264.02 K, 305.6 kPa, w2 = 0.45 | 9.80334
264.03 K, 136.3 kPa, w2 = 0.45 | 4.14766
264.03 K, 179.2 kPa, w2 = 0.45 | 5.52482
264.03 K, 395.1 kPa, w2 = 0.45 | 13.0578
264.05 K, 220.5 kPa, w2 = 0.4 | 7.15058
264.05 K, 288.1 kPa, w2 = 0.4 | 9.52478
264.06 K, 127.7 kPa, w2 = 0.4 | 4.02995
264.06 K, 168.1 kPa, w2 = 0.4 | 5.36802
264.06 K, 373.8 kPa, w2 = 0.4 | 12.6873
264.29 K, 216 kPa, w2 = 0.5 | 6.42237
264.29 K, 282.6 kPa, w2 = 0.5 | 8.55501
264.29 K, 367.3 kPa, w2 = 0.5 | 11.3955
264.3 K, 124.9 kPa, w2 = 0.5 | 3.61957
264.3 K, 164.5 kPa, w2 = 0.5 | 4.82138
266.99 K, 289.8 kPa, w2 = 0.65 | 7.7396
267.01 K, 221.7 kPa, w2 = 0.65 | 5.82
267.01 K, 375.8 kPa, w2 = 0.65 | 10.2907
267.02 K, 128.5 kPa, w2 = 0.65 | 3.2915
267.02 K, 169 kPa, w2 = 0.65 | 4.3767
267.04 K, 261.1 kPa, w2 = 0.55 | 7.4247
267.04 K, 340.3 kPa, w2 = 0.55 | 9.8728
267.05 K, 199.2 kPa, w2 = 0.55 | 5.5837
267.05 K, 438.6 kPa, w2 = 0.55 | 13.1279
267.07 K, 138.6 kPa, w2 = 0.6 | 3.6841
267.07 K, 151.4 kPa, w2 = 0.55 | 4.1987
267.07 K, 182.7 kPa, w2 = 0.6 | 4.8989
267.07 K, 239.8 kPa, w2 = 0.6 | 6.5142
267.07 K, 313.2 kPa, w2 = 0.6 | 8.6621
267.08 K, 405.7 kPa, w2 = 0.6 | 11.5178
267.95 K, 114.5 kPa, w2 = 0.4 | 3.5398
267.95 K, 150.8 kPa, w2 = 0.4 | 4.71519
267.95 K, 198.3 kPa, w2 = 0.4 | 6.28082
267.96 K, 259.7 kPa, w2 = 0.4 | 8.36602
268 K, 338.5 kPa, w2 = 0.4 | 11.1424
268.07 K, 437.9 kPa, w2 = 0.4 | 14.8381
268.15 K, 234.6 kPa, w2 = 0.45 | 7.16341
268.15 K, 306.8 kPa, w2 = 0.45 | 9.54198
268.15 K, 398.6 kPa, w2 = 0.45 | 12.7103
268.16 K, 135.7 kPa, w2 = 0.45 | 4.03719
268.16 K, 178.7 kPa, w2 = 0.45 | 5.37765
268.22 K, 133.2 kPa, w2 = 0.5 | 3.80047
268.23 K, 175.4 kPa, w2 = 0.5 | 5.06234
268.24 K, 230.4 kPa, w2 = 0.5 | 6.74301
268.24 K, 301.4 kPa, w2 = 0.5 | 8.98179
268.25 K, 391.6 kPa, w2 = 0.5 | 11.9637
270.98 K, 225.5 kPa, w2 = 0.55 | 6.2618
270.99 K, 171.5 kPa, w2 = 0.55 | 4.709
270.99 K, 295.2 kPa, w2 = 0.55 | 8.3263
270.99 K, 384.1 kPa, w2 = 0.55 | 11.0715
271.01 K, 493 kPa, w2 = 0.55 | 14.7211
271.03 K, 140.5 kPa, w2 = 0.65 | 3.5483
271.03 K, 242.2 kPa, w2 = 0.65 | 6.274
271.03 K, 316.1 kPa, w2 = 0.65 | 8.3428
271.04 K, 184.7 kPa, w2 = 0.65 | 4.7181
271.04 K, 466.5 kPa, w2 = 0.6 | 13.2292
271.05 K, 409.9 kPa, w2 = 0.65 | 11.0926
271.08 K, 361.5 kPa, w2 = 0.6 | 9.9474
271.1 K, 160.8 kPa, w2 = 0.6 | 4.2305
271.1 K, 211.6 kPa, w2 = 0.6 | 5.6254
271.1 K, 277.5 kPa, w2 = 0.6 | 7.4803
271.58 K, 526.1 kPa, w2 = 0.5 | 16.4345
271.6 K, 411.1 kPa, w2 = 0.5 | 12.337
271.62 K, 241.2 kPa, w2 = 0.5 | 6.95248
271.62 K, 316.5 kPa, w2 = 0.5 | 9.26115
271.64 K, 182.9 kPa, w2 = 0.5 | 5.21904
271.65 K, 138.7 kPa, w2 = 0.5 | 3.918
272.12 K, 507.5 kPa, w2 = 0.45 | 16.4006
272.13 K, 175.9 kPa, w2 = 0.45 | 5.20923
272.13 K, 231.2 kPa, w2 = 0.45 | 6.93891
272.13 K, 289.6 kPa, w2 = 0.4 | 9.21252
272.13 K, 302.5 kPa, w2 = 0.45 | 9.24297
272.13 K, 393.6 kPa, w2 = 0.45 | 12.3121
272.14 K, 127.8 kPa, w2 = 0.4 | 3.89783
272.14 K, 168.4 kPa, w2 = 0.4 | 5.19207
272.14 K, 221.2 kPa, w2 = 0.4 | 6.91602
